Laboratory results from patent publication US20030039657A1, “Inducible vaccines” (priority 1999, published 2003).

Test system: humoral immune response against hAAT
Experiment: Anti-hAAT antibody (humoral immune response) in mouse serum by ELISA after gene-gun DNA inoculation
Type: in vivo, balb/c mice
Method: Five to 7-week-old female Balb/c mice were given 4 μg reporter (P4U-hAAT) and 200 ng effector (GS1158) of the mifepristone-inducible plasmid DNA divided into four shots. Mifepristone was given i.p. 20 weeks after DNA administration (Day 140, 142, 144). Blood samples were take from the tail vein at various time points and anti-hAAT levels were determined by ELISA. Values are mean +/−SD for three mice per group. The control is with no drug treatment.
Specific-pathogen-free (5-7 weeks old), female balb/c mice were purchased from Jackson Labs (Bar Harbor, Me.). A biolistic gene gun (Rumsey-Loomis, Ithaca, N.Y.) was used to deliver plasmid DNA into the skin of mouse ears (Williams et al., 1991; Johnston and Tang 1993). Briefly, DNA was precipitated onto gold micro-projectiles (3±1 μm diameter, Metz Metallurgical Corp., South Plainfield, N.J.) at 4 μg DNA/mg gold. Each mouse received four shots of gold-DNA and each shots contains 1 μg reporter (P4U-AAT) and 50 ng effector (GS-1158) plasmid DNA. The drug (RU486, Sigma) was given intraperitoneally on days 1, 3, 5, and also on day 14, 16, in a dose of 500 μg/kg/day in 100 μl sesame oil, after DNA injection. […] The blood samples of the mice was collected from the tail vein at the time point as indicated. The anti-hAAT antibodies in the serum was measured using enzyme-linked immuno enzyme-linked immunosorbent assay (ELISA, Tang et al. 1992). Briefly, ninety six-well plats were coated with 1 μg hAAT per well in 50 μl phosphate buffered saline (PBS) (for overnight at 4° C. and 100 μl blocking buffer (3% bovine serum albumin (3SA) in PBS with 0.05% tween 20) was added and incubated for 2 hrs at room temperature. After 3 times washing with PBS plus 0.05% tween 20, the serum samples (diluted 1:200 in blocking buffer) were added into the well and incubated overnight at 4° C., then further incubated with horseradish peroxidase-conjugated goat anti-mouse immunoglobulin G and M (Jackson ImmunResearch, West Grove, Pa.) for 1 h at room temperature. The plate was washed and developed with TMB buffer solution (Calbiochem). The optical density was read at 450 nm and concentration of the antibodies was determined according to the standard curve.
The mice were given RU486 intraperitoneally in week 7 (Day 50, 52, 54) after the DNA injection in the drug and the Van Gogh (removed the site of the DNA inoculation, ear) groups. The ear cut was performed before administering the drug. The value shown is the mean with standard deviation for experiments on three mice.

CC#C[C@]1(O)CC[C@H]2[C@@H]3CCC4=CC(=O)CCC4=C3[C@@H](c3ccc(N(C)C)cc3)C[C@@]21C [RU486, mifepristone]
anti-hAAT antibody levels, time of peak (FIG. 3, 4 shots of 1 μg P4U-AAT + 50 ng GS-1158, RU486 500 μg/kg/day ip days 1, 3, 5, 14, 16): reached peak levels at the third week
anti-hAAT immune response, inducibility by ligand (FIG. 4, RU486 on week 3 (day 21, 23, 25) after DNA, 1 μg reporter and 50 ng effector per shot): inducible by simply giving the ligand three weeks after the primary injection of the DNA
anti-hAAT immune response, inducibility by ligand (FIG. 6, RU486 ip in week 7 (Day 50, 52, 54) after DNA injection): inducible 7 weeks after the DNA injection
anti-hAAT immune response after removal of the DNA inoculation site (Van Gogh group) (FIG. 6, ear cut before RU486 in week 7): the original vaccine site was not required for induction
